Values quoted from earlier work in patent US20190316065A1, “NATURALLY-DERIVED ANTIMICROBIAL CLEANING SOLUTIONS” (ProNatural Brands LLC, priority 2018, published 2019).

Conditions: standard pKa

O=C(O)CC(O)(CC(=O)O)C(=O)O [citric acid]
pKa1: 3.1 | pKa2: 4.8 | pKa3: ≈ 6.4
